Assay results published in publication PMC10480608 (Heliyon, 2023).
Read-outs that look alike come from different tables or passages of the source.

Tests used:
[1] = test system: DU145 prostate cancer cells; experiment: MTT cytotoxicity assay, DU145; format: cell-based, human
[2] = test system: HepG2 (hepatocellular carcinoma); experiment: MTT cytotoxicity assay, HepG2; format: cell-based, human; conditions: read-out: IC50 ± SD, HEPG-2
[3] = test system: MCF-7 (human breast adenocarcinoma); experiment: MTT cytotoxicity assay, MCF-7; format: cell-based; conditions: read-out: IC50 ± SD, MCF7
[4] = test system: MDA-231 breast cancer cells; experiment: MTT cytotoxicity assay, MDA-231; format: cell-based, human
[5] = test system: normal human dermal/fibroblasts; experiment: MTT cytotoxicity assay, normal fibroblasts; format: cell-based; conditions: read-out: IC50 ± SD, Fibro dental, 72 h
MCF-7 cell lines = experiment: Dose response study, growth rate; format: cell-based, human; conditions: MCF-7, treatment for 24 h, tested 1–300 μg/mL
[6] = test system: PC3 (human prostate carcinoma); experiment: MTT cytotoxicity assay, PC3; format: cell-based; conditions: 72 h, read-out: IC50 ± SD, PC-3
[7] = Homo sapiens, DU-145, read-out: IC50 ± SD, DU145
[8] = Homo sapiens, MDA-MB-231, read-out: IC50 ± SD, MDA-231

`N.N.[Cl][Pt][Cl]` [Cisplatin, reference compound] was tested, and the IC50 ([1]; read-out: IC50 ± SD, DU145, Prostate cancer cells, MTT, mean ± SD) was 8.5 ± 1.7 µM, the IC50 ([2]; Liver cancer cells, MTT, 72 h, mean ± SD) was 9.64 ± 1.7 µM and the IC50 ([3]; Breast cancer cells, MTT, 72 h, mean ± SD) was 14.6 ± 2.8 µM. For the same compound, the IC50 ([4]; read-out: IC50 ± SD, MDA-231, Breast cancer cells, MTT, mean ± SD) was 16.2 ± 1.6 µM and the IC50 ([5]; Normal cells, MTT, mean ± SD) was > 100 µM.

For `Cc1nc([N+](=O)[O-])c(N2CCN(Cc3cn(Cc4cccc(F)c4)nn3)CC2)n1Cc1ccccc1` [Compound 9g, 1-(N1-benzyl-2-methyl-4-nitro-imidazole-5-yl)-4-((N1-(3-fluorobenzyl)-1H-1,2,3-triazol-4-yl)methyl)piperazine], the IC50 ([3]; Homo sapiens, MCF7, 72 h) was 2 ± 0.03 µM, the IC50 ([5]; Homo sapiens, Fibroblast) was > 500 µM and the “concentration range with cytostatic effect (GR values)” value (MCF-7 cell lines) was 1 to 300 µg/mL. The “concentration range with cytotoxic effect (GR values)” value (MCF-7 cell lines) was “did not show cytotoxic effects”.

For `Cc1ccc(Cn2cc(CN3CCN(c4c([N+](=O)[O-])nc(C)n4Cc4ccccc4)CC3)nn2)cc1` [Compound 9k, 1-(N1-benzyl-2-methyl-4-nitro-imidazole-5-yl)-4-((N1-(4-methylbenzyl)-1H-1,2,3-triazol-4-yl)methyl)piperazine], the IC50 ([3]; Homo sapiens, MCF7, 72 h) was 5 ± 2 µM, the IC50 ([5]; Homo sapiens, Fibroblast) was > 500 µM and the “concentration range with cytostatic effect (GR values)” value (MCF-7 cell lines) was 37.5 to 1 μg/mL. For the same compound, the “concentration range with cytotoxic effect (GR values)” value (MCF-7 cell lines) was 75 to 300 µg/mL.

`Cc1nc([N+](=O)[O-])c(N2CCN(Cc3cn(CC(=O)c4ccc(Br)cc4)nn3)CC2)n1Cc1ccccc1` [Compound 10b, 2-(4-((4-(1-benzyl-2-methyl-4-nitro-1H-imidazole-5-yl)piperazin-1-yl)methyl)-1H-1,2,3-triazol-1-yl)-1-(4-bromophenyl)ethanone] showed an IC50 [1, 7] of 8.95 ± 1.7 µM, an IC50 ([3]; Homo sapiens, MCF7, 72 h) of 372 ± 30 µM and an IC50 [4, 8] of 1.33 ± 0.9 µM.

In the case of `COc1cccc(C(=O)Cn2cc(CN3CCN(c4c([N+](=O)[O-])nc(C)n4Cc4ccccc4)CC3)nn2)c1` [Compound 10c, 2-(4-((4-(1-benzyl-2-methyl-4-nitro-1H-imidazole-5-yl)piperazin-1-yl)methyl)-1H-1,2,3-triazol-1-yl)-1-(3-methoxyphenyl)ethanone], the IC50 [1, 7] is reported as 15 ± 1.6 µM, the IC50 ([3]; Homo sapiens, MCF7, 72 h) is reported as 585 ± 37 µM and the IC50 [4, 8] is reported as 1.38 ± 1.3 µM. The IC50 ([5]; Homo sapiens, Fibroblast) was > 500 µM.

`Cc1nc([N+](=O)[O-])c(N2CCN(Cc3cn(-c4ccc5c(c4)OCO5)nn3)CC2)n1Cc1ccccc1` [Compound 11p, 1-((N1-(benzo[d] [1,3]dioxol-5-yl)-1H-1,2,3-triazol-4-yl)methyl)-4-(N1-benzyl-2-methyl-4-nitro-1H-imidazole-5-yl) piperazine] gave an IC50 [1, 7] of 0.803 ± 0.04 µM, an IC50 ([3]; Homo sapiens, MCF7, 72 h) of 52 ± 30 µM and an IC50 [4, 8] of 11.7 ± 1.6 µM.

`COc1cccc2c1C(=O)c1c(O)c3c(c(O)c1C2=O)C[C@@](O)(C(=O)CO)C[C@@H]3O[C@H]1C[C@H](N)[C@H](O)[C@H](C)O1` [Doxorubicin, reference compound] gave an IC50 [6] of 0.62 ± 0.06 µM, an IC50 [1, 7] of 0.66 ± 0.04 µM and an IC50 ([2]; Homo sapiens, HepG2, 72 h) of 0.61 ± 0.05 µM. For the same compound, the IC50 ([3]; Homo sapiens, MCF7, 72 h) was 0.64 ± 0.04 µM, the IC50 [4, 8] was 2.3 ± 1.3 µM and the IC50 ([5]; Homo sapiens, Fibroblast) was > 100 µM.
